Reference: ChEMBL document CHEMBL4382202, “1-(2-Hydroxybenzoyl)-thiosemicarbazides are promising antimicrobial agents targeting d-alanine-d-alanine ligase in bacterio” (Eur J Med Chem, 2018)
Calls of active or inactive are those of the source. No cut-off for these calls is given here.

Experiments:
[1] = target: 5-hydroxytryptamine receptor 1A (Homo sapiens) (UniProt P08908); test: Displacement of [3H]8-OH-DPAT from recombinant human 5-HT1A receptor at 10 uM after 60 mins by scintillation counting analysis relative to control
[2] = target: Angiotensin-converting enzyme (Homo sapiens) (UniProt P12821); test: Inhibition of human recombinant ACE at 10 uM using Abz-FRK(Dnp)-P-OH as substrate after 30 mins by fluorimetric analysis relative to control
[3] = target: GABA-A receptor; alpha-1/beta-2/gamma-2 (Homo sapiens) (UniProt P14867+P47870+P18507); test: Displacement of [3H]muscimol from recombinant human GABAalpha1beta2gamma2 at 10 uM after 120 mins by scintillation counting method relative to control; type: protein-complex assay
[4] = target: Tyrosine-protein kinase Lck (Homo sapiens) (UniProt P06239); test: Inhibition of human recombinant Lck at 10 uM using Ulight-Poly GAT[EAY(1:1:1)]n as substrate after 10 mins by LANCE analysis relative to control
[5] = target: cGMP-inhibited 3',5'-cyclic phosphodiesterase 3A (Homo sapiens) (UniProt Q14432); test: Inhibition of human recombinant PDE3A using [3H]cAMP at 10 uM after 20 mins by scintillation counting analysis relative to control
[6] = target: Secretory phospholipase A2 (Homo sapiens) (UniProt Q5R387+Q9NZK7+P14555+Q9BZM2+Q9UNK4+P39877+O15496+P04054+Q9NZ20+Q9BZM1+Q9BX93); test: Inhibition of human sPLA2 at 10 uM relative to control; type: protein assay
[7] = target: T1, D-alanine--D-alanine ligase (Enterococcus faecalis (strain ATCC 700802 / V583)) (UniProt Q47758); test: Mixed non-competitive type inhibition of Enterococcus faecalis JH2-2 C-terminal 6His-tagged DdlB expressed in Escherichia coli LMG194 at 1 to 10 uM preincubated for 30 mins followed increasing substrate and fixed ATP addition and measured after 20 mins by Biomol Green reagent assay
T1 sequence (whole entry): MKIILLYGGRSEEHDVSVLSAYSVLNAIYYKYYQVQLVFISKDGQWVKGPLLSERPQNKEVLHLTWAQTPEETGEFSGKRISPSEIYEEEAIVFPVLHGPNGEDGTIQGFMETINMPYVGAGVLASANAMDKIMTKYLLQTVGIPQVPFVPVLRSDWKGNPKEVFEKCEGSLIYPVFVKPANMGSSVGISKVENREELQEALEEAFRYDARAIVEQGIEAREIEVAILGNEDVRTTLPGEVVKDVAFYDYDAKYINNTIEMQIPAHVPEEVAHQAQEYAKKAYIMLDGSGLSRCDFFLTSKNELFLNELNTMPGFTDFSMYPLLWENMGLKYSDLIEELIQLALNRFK

[8] = target: T1, D-alanine--D-alanine ligase (Enterococcus faecalis (strain ATCC 700802 / V583)); test: Inhibition of Enterococcus faecalis JH2-2 C-terminal 6His-tagged DdlB expressed in Escherichia coli LMG194 assessed as Vmax/Km of ATP at 10 uM by Biomol Green reagent assay (reference value: 0.3 /min)

Angiotensin-converting enzyme (Homo sapiens), sequence (P12821 whole entry): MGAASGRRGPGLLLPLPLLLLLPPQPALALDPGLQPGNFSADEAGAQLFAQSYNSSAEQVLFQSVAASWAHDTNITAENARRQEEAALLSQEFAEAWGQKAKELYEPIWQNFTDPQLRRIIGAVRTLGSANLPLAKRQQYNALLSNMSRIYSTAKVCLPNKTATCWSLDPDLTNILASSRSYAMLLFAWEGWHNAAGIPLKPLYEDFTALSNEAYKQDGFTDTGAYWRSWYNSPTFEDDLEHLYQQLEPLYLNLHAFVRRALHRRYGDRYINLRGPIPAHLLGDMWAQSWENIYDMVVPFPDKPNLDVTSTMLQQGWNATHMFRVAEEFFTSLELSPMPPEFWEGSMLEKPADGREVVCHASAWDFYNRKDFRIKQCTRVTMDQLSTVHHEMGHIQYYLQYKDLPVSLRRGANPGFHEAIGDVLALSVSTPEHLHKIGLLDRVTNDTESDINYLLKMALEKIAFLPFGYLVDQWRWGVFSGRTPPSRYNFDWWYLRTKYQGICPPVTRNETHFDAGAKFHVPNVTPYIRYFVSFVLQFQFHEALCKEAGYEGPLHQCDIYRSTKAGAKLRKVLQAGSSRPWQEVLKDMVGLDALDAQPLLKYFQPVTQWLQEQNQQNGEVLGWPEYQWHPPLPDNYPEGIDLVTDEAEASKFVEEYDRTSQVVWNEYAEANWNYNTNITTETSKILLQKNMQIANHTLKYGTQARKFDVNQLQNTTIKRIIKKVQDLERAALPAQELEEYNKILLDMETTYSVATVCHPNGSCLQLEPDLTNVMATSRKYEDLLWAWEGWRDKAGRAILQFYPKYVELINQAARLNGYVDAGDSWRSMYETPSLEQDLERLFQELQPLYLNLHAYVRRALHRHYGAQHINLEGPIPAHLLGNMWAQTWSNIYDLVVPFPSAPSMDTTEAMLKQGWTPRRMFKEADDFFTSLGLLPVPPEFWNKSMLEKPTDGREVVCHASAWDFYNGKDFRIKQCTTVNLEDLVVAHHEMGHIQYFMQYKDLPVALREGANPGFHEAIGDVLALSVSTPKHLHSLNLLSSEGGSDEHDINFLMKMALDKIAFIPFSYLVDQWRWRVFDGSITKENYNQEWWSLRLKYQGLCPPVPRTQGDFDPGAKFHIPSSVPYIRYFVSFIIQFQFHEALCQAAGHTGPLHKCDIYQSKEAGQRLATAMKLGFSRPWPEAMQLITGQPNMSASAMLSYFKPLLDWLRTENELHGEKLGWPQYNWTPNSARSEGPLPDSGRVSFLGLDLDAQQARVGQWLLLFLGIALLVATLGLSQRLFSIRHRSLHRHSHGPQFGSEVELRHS
cGMP-inhibited 3',5'-cyclic phosphodiesterase 3A (Homo sapiens), sequence (Q14432 whole entry): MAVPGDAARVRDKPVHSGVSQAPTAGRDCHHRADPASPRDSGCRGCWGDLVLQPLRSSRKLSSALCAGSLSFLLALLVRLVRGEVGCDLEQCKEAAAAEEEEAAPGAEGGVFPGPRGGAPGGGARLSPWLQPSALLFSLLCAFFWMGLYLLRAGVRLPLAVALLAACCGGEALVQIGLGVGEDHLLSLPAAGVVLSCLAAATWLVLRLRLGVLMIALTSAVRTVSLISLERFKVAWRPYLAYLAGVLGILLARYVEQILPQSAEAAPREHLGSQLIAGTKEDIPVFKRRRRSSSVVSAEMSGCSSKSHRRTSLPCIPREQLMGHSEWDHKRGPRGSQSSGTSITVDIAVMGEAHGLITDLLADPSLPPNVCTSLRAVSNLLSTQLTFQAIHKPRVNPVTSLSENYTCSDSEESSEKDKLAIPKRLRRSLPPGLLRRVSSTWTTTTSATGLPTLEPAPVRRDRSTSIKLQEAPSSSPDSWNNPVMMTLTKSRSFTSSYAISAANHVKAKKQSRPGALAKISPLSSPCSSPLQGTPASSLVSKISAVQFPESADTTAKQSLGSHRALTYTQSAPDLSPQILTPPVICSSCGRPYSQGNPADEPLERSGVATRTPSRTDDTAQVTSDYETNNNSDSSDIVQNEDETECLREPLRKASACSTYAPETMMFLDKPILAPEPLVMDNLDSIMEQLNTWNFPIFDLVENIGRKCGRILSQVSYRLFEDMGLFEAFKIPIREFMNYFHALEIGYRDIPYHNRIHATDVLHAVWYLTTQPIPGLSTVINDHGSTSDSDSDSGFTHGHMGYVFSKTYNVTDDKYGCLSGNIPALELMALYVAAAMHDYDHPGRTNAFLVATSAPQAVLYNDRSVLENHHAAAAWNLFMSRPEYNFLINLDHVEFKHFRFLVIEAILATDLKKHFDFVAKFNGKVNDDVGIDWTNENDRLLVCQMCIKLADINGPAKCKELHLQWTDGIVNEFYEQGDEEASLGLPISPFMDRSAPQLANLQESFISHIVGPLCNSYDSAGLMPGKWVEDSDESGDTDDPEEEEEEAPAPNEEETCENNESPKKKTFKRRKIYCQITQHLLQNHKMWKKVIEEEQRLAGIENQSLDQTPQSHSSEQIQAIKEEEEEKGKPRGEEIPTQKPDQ
Tyrosine-protein kinase Lck (Homo sapiens), sequence (P06239 2-509 limits assumed): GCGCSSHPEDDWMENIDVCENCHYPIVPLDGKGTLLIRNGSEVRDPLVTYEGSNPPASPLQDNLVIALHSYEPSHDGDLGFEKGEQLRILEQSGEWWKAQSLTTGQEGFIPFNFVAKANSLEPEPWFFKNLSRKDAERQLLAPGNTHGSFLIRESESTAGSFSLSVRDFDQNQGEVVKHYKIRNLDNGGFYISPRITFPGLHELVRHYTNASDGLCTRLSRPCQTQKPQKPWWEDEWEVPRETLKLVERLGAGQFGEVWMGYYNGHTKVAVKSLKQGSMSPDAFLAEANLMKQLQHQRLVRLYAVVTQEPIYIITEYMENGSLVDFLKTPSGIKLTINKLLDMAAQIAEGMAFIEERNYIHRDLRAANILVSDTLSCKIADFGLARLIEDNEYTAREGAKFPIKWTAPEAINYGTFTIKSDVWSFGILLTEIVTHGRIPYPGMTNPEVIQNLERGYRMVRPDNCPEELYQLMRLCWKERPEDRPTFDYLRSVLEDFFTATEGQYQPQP
5-hydroxytryptamine receptor 1A (Homo sapiens), sequence (P08908 whole entry): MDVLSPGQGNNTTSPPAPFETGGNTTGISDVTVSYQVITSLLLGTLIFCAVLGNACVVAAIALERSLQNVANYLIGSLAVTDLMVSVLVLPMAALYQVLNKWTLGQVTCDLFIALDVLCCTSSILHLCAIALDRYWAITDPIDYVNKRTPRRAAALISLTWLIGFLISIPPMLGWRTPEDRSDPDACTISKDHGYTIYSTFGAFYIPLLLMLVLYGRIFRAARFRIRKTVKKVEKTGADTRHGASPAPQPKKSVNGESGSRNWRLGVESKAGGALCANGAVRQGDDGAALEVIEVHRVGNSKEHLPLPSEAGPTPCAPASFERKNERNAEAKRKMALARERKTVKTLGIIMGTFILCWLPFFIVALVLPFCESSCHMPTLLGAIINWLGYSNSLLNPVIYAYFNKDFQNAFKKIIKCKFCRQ

## O=C(NNC(=S)Nc1ccc(Cl)c(Cl)c1)c1ccccc1O
[1]
  inhibition: < 30%
[2]
  inhibition: < 30%
[3]
  inhibition: < 30%
[4]
  inhibition: < 30%
[5]
  inhibition: < 30%
[6]
  inhibition: < 30%
[7]
  inhibition: Active
[8]
  Vmax/Km: 0.1 min⁻¹
